The source of these data is PubChem BioAssay AID330 (DTP/NCI, 2004).

Values joined by “and” are separate entries in the source; they are usually repeats but may differ in a detail not shown here. Equal values may be shown once. Inconclusive results and toxic doses are left out.

The subject of this experiment is P388 leukemia ip, CD2F1 mice, survival T/C. Kind of experiment: NCI In Vivo Anticancer Drug Screen. Data for tumor model P388 Leukemia (intraperitoneal) in CD2F1 (CDF1) mice. The following applies: endpoint: median survival time, higher = longer survival. In short, it runs like this:
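Mice carrying the transplanted tumor received test compound or vehicle. Survival was recorded in each group, and the value is the treated-group measurement divided by that of the vehicle-treated control group.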

Where [1] appears, read: dose: 50.0 mg/kg/injection, schedule: Q01DX009 (ip), vehicle: saline with Tween-80.
[2] abbreviates: dose: 100.0 mg/kg/injection, schedule: Q01DX009 (ip), vehicle: saline with Tween-80.
The mark [3] stands for this setting: dose: 200.0 mg/kg/injection, schedule: Q01DX009 (ip), vehicle: saline with Tween-80.
Setting [4] is: dose: 12.5 mg/kg/injection, schedule: Q01DX009 (ip), vehicle: saline.
[5] abbreviates: dose: 25.0 mg/kg/injection, schedule: Q01DX009 (ip), vehicle: saline.
Where [6] appears, read: dose: 50.0 mg/kg/injection, schedule: Q01DX009 (ip), vehicle: saline.

For `C=C(Cl)CSc1ncnc2nc[nH]c12`, the T/C runs as follows: under setting [1], 100 % of control; (dose: 50.0 mg/kg/injection, schedule: Q04DX003 (ip), vehicle: saline with Tween-80) 95 % of control; under setting [2], 109 % of control; (dose: 100.0 mg/kg/injection, schedule: Q04DX003 (ip), vehicle: saline with Tween-80) 91 % of control; under setting [3], 109 % of control; (dose: 200.0 mg/kg/injection, schedule: Q04DX003 (ip), vehicle: saline with Tween-80) 91 % of control.
With `COc1cc(OC)c(NC(=O)C2=C(C)NC(C)=C(C(=O)Nc3cc(Cl)c(OC)cc3OC)C2c2cccc([N+](=O)[O-])c2)cc1Cl`, the T/C is 101 % of control (dose: 15.0 mg/kg/injection, schedule: Q01DX005 (ip), vehicle: Klucel (hydroxypropylcellulose) (HPC)); 100 % of control (dose: 30.0 mg/kg/injection, schedule: Q01DX005 (ip), vehicle: Klucel (hydroxypropylcellulose) (HPC)); 101 % of control and 93 % of control (dose: 60.0 mg/kg/injection, schedule: Q01DX005 (ip), vehicle: Klucel (hydroxypropylcellulose) (HPC)).
For `COC1=CC=C2Nc3nc(N)[nH]c(=O)c3SC2N1` (stereo unspecified), the T/C reads like this: (dose: 60.0 mg/kg/injection, schedule: Q01DX005 (ip), vehicle: saline with Tween-80) 99 % of control; (dose: 120.0 mg/kg/injection, schedule: Q01DX005 (ip), vehicle: saline with Tween-80) 90 % of control; (dose: 240.0 mg/kg/injection, schedule: Q01DX005 (ip), vehicle: saline with Tween-80) 97 % of control.
Regarding `OCC[N-]CC[N-]CCO.[Cl][Co][Cl]`, the T/C is 103 % of control (dose: 6.25 mg/kg/injection, schedule: Q01DX009 (ip), vehicle: saline); 120 % of control under setting [4]; 120 % of control under setting [5]; 122 % of control under setting [6]; 92 % of control (dose: 100.0 mg/kg/injection, schedule: Q01DX009 (ip), vehicle: saline).
In the case of `O=C(O)C1(C(=O)O)CCC1.[NH2-].[NH2-].[Pt+2]`, the T/C runs as follows: (dose: 6.25 mg/kg/injection, schedule: Q01DX005 (ip), vehicle: water) 152 % of control; (dose: 6.25 mg/kg/injection, schedule: Q01DX009 (ip), vehicle: water) 167 % of control; (dose: 12.5 mg/kg/injection, schedule: Q01DX001 (im), vehicle: suspension in saline) 105 % of control; (dose: 12.5 mg/kg/injection, schedule: Q01DX001 (ip), vehicle: suspension in saline) 117 % of control; (dose: 12.5 mg/kg/injection, schedule: Q01DX001 (iv), vehicle: suspension in saline) 108 % of control; (dose: 12.5 mg/kg/injection, schedule: Q01DX001 (sc), vehicle: suspension in saline) 103 % of control. Besides, the T/C is 166 % of control (dose: 12.5 mg/kg/injection, schedule: Q01DX005 (ip), vehicle: water); 113 % of control under setting [4]; 189 % of control (dose: 12.5 mg/kg/injection, schedule: Q01DX009 (ip), vehicle: water); 110 % of control (dose: 12.5 mg/kg/injection, schedule: Q04DX003 (iv), vehicle: saline); 117 % of control (dose: 25.0 mg/kg/injection, schedule: Q01DX001 (im), vehicle: suspension in saline); 107 % of control (dose: 25.0 mg/kg/injection, schedule: Q01DX001 (ip), vehicle: saline). Besides, the T/C reads like this: (dose: 25.0 mg/kg/injection, schedule: Q01DX001 (ip), vehicle: suspension in saline) 121 % of control; (dose: 25.0 mg/kg/injection, schedule: Q01DX001 (iv), vehicle: suspension in saline) 106 % of control; (dose: 25.0 mg/kg/injection, schedule: Q01DX001 (oral), vehicle: suspension in saline) 100 % of control; (dose: 25.0 mg/kg/injection, schedule: Q01DX001 (sc), vehicle: suspension in saline) 107 % of control; (dose: 25.0 mg/kg/injection, schedule: Q01DX005 (ip), vehicle: water) 194 % of control; (dose: 25.0 mg/kg/injection, schedule: Q01DX005 (iv), vehicle: water) 90 % of control. The T/C runs as follows: under setting [5], 152 % of control; (dose: 25.0 mg/kg/injection, schedule: Q01DX009 (ip), vehicle: water) 112 % of control; (dose: 25.0 mg/kg/injection, schedule: Q04DX003 (ip), vehicle: saline) 114 % of control; (dose: 25.0 mg/kg/injection, schedule: Q04DX003 (ip), vehicle: water) 186 % of control; (dose: 25.0 mg/kg/injection, schedule: Q04DX003 (iv), vehicle: saline) 113 % of control; (dose: 50.0 mg/kg/injection, schedule: Q01DX001 (im), vehicle: suspension in saline) 110 % of control. Further, the T/C is 124 % of control (dose: 50.0 mg/kg/injection, schedule: Q01DX001 (ip), vehicle: suspension in saline); 161 % of control (dose: 50.0 mg/kg/injection, schedule: Q01DX001 (ip), vehicle: water); 110 % of control (dose: 50.0 mg/kg/injection, schedule: Q01DX001 (iv), vehicle: suspension in saline); 103 % of control (dose: 50.0 mg/kg/injection, schedule: Q01DX001 (oral), vehicle: suspension in saline); 110 % of control (dose: 50.0 mg/kg/injection, schedule: Q01DX001 (sc), vehicle: suspension in saline); 100 % of control under setting [6]. Also, the T/C is 217 % of control (dose: 50.0 mg/kg/injection, schedule: Q04DX003 (ip), vehicle: water); 117 % of control (dose: 50.0 mg/kg/injection, schedule: Q04DX003 (iv), vehicle: saline); 116 % of control (dose: 50.0 mg/kg/injection, schedule: Q04DX003 (oral), vehicle: saline); 111 % of control (dose: 100.0 mg/kg/injection, schedule: Q01DX001 (im), vehicle: suspension in saline); 164 % of control (dose: 100.0 mg/kg/injection, schedule: Q01DX001 (ip), vehicle: water); 105 % of control (dose: 100.0 mg/kg/injection, schedule: Q01DX001 (iv), vehicle: saline). Also, the T/C by setting is: (dose: 100.0 mg/kg/injection, schedule: Q01DX001 (iv), vehicle: suspension in saline) 115 % of control; (dose: 100.0 mg/kg/injection, schedule: Q01DX001 (iv), vehicle: water) 93 % of control; (dose: 100.0 mg/kg/injection, schedule: Q01DX001 (sc), vehicle: suspension in saline) 120 % of control; (dose: 100.0 mg/kg/injection, schedule: Q04DX003 (ip), vehicle: saline) 170 % of control; (dose: 100.0 mg/kg/injection, schedule: Q04DX003 (ip), vehicle: water) 96 % of control; (dose: 100.0 mg/kg/injection, schedule: Q04DX003 (iv), vehicle: saline) 123 % of control. Further, the T/C runs as follows: (dose: 100.0 mg/kg/injection, schedule: Q04DX003 (oral), vehicle: saline) 114 % of control; (dose: 200.0 mg/kg/injection, schedule: Q01DX001 (im), vehicle: suspension in saline) 105 % of control; (dose: 200.0 mg/kg/injection, schedule: Q01DX001 (iv), vehicle: suspension in saline) 100 % of control; (dose: 200.0 mg/kg/injection, schedule: Q01DX001 (oral), vehicle: saline) 104 % of control; (dose: 200.0 mg/kg/injection, schedule: Q01DX001 (oral), vehicle: suspension in saline) 110 % of control; (dose: 200.0 mg/kg/injection, schedule: Q01DX001 (sc), vehicle: suspension in saline) 107 % of control. Further, the T/C runs as follows: (dose: 200.0 mg/kg/injection, schedule: Q04DX003 (oral), vehicle: saline) 117 % of control; (dose: 400.0 mg/kg/injection, schedule: Q01DX001 (iv), vehicle: saline) 91 % of control; (dose: 400.0 mg/kg/injection, schedule: Q01DX001 (oral), vehicle: saline) 100 % of control; (dose: 400.0 mg/kg/injection, schedule: Q01DX001 (oral), vehicle: suspension in saline) 101 % of control; (dose: 400.0 mg/kg/injection, schedule: Q04DX003 (oral), vehicle: saline) 122 % of control.
With `COc1ccc(C(Br)C(C)Br)cc1` (stereo unspecified), the T/C is, setting by setting: under setting [1], 104 % of control; under setting [2], 90 % of control; under setting [3], 95 % of control.
Consider `C=C(C(=O)O)S(=O)(=O)O`, for which the T/C (dose: 7.5 mg/kg/injection, schedule: Q01DX009 (ip), vehicle: saline with Tween-80) was 102 % of control; the T/C (dose: 15.0 mg/kg/injection, schedule: Q01DX009 (ip), vehicle: saline with Tween-80) was 110 % of control; the T/C (dose: 30.0 mg/kg/injection, schedule: Q01DX009 (ip), vehicle: saline with Tween-80) is 114 % of control.
